Data on seven compounds can be found in ChEMBL document CHEMBL2016510 (J Med Chem, 2012).

The nature of data set [1]: Negative chronotropic activity in guinea pig spontaneously beating right atria assessed as decrease in atrial rate at 10^-4 M relative to control. More on the design: scale not given: the % may be the effect or the level left. Format: functional, Cavia porcellus, Cardiac atrium.
Another data set relates to Mus musculus. Put plainly: Neurotoxicity in mouse assessed as deffect in motor coordination at 25 to 50 mg/kg, po after 15 to 45 mins by rotarod test. The class given is toxicity, organism-based. More on the design: route oral. As to conditions: in vivo. In general terms: Falling from the rotarod earlier than controls is read as motor impairment.
Data set [2] addresses T1, Sodium channel protein type 5 subunit alpha (Homo sapiens, UniProt Q14524). Kind of data set: Blockade of human full-length NaV1.5 expressed in HEK293 cells co-transfected with pCD8-IRES-hbeta1 assessed as 10 Hz of use-dependent-induced channel current at -120 mV holding potential after 36 to 72 hrs by patch clamp assay. Format: cell-based. Background: Patch clamp records ionic current or voltage across a cell membrane.

Data set [3] can be described thus: Negative inotropic activity in guinea pig left atria assessed as decrease of 1 Hz current-induced developed tension. The class given is functional, tissue-based. As to conditions: Cavia porcellus, Cardiac atrium.
Data set [4] concerns the target T1, Sodium channel protein type 5 subunit alpha. Put plainly: Blockade of human full-length NaV1.5 expressed in HEK293 cells co-transfected with pCD8-IRES-hbeta1 assessed as 0.1 Hz of half-maximal tonic-induced channel current at -120 mV holding potential after 36 to 72 hrs by patch clamp assay. Format: cell-based.
The subject of data set [5] is Caco-2. Put plainly: Apparent permeability from apical to basolateral side in human Caco2 cells after 21 days by UV spectroscopy. The class given is ADME, cell-based. A general note: Passage across Caco-2 layers is used to estimate intestinal permeability.
A short description of data set [6]: Antiarrhythmic activity in guinea pig left atria assessed as increase of 1 Hz-induced alternating current arrhythmia after 60 mins. The class given is functional, tissue-based. As to conditions: Cavia porcellus, Cardiac atrium, 1 h.
Data set [7] relates to Caco-2. Kind of data set: Efflux ratio of permeability from basolateral to apical side to apical to basolateral side in human Caco2 cells after 21 days by UV spectroscopy. The class given is ADME, cell-based.
A further data set deals with Aorta. Kind of data set: Vasorelaxant activity in potassium depolarized guinea pig aortic strip assessed as inhibition of calcium-induced contraction at 10^-4 M. The class given is functional, Cavia porcellus. More on the design: scale not given: the % may be the effect or the level left.
For a further data set, the system named is HepG2. Kind of data set: Cytotoxicity against human HepG2 cells assessed as cell viability after 2 hrs by MTT assay. The class given is cell-based. As to conditions: HepG2, 2 h.
Data set [8] is described as follows: Antiarrhythmic activity in guinea pig left atria assessed as increase of 1 Hz-induced alternating current arrhythmia at 10^-4 M after 60 mins relative to control. As to conditions: Cavia porcellus, Cardiac atrium, 1 h. The class given is functional.
Data set [9] deals with Caco-2. Kind of data set: Apparent permeability from basolateral to apical side in human Caco2 cells after 21 days by UV spectroscopy. The class given is ADME, cell-based.
Data set [10] can be described thus: Negative inotropic activity in guinea pig left atria assessed as decrease of 1 Hz current-induced developed tension at 5 x 10^-5 M relative to control. More on the design: scale not given: the % may be the effect or the level left. Format: functional, Cavia porcellus, Cardiac atrium.
The nature of data set [11]: Negative chronotropic activity in guinea pig spontaneously beating right atria assessed as decrease in atrial rate. As to conditions: Cavia porcellus, Cardiac atrium. Format: functional.
Data set [12] is described as follows: Negative inotropic activity in guinea pig left atria assessed as decrease of 1 Hz current-induced developed tension at 10^-4 M relative to control. The class given is functional, Cavia porcellus, Cardiac atrium. More on the design: scale not given: the % may be the effect or the level left.
Data set [13] is described as follows: Negative inotropic activity in guinea pig left atria assessed as decrease of 1 Hz current-induced developed tension at 10^-6 M relative to control. More on the design: scale not given: the % may be the effect or the level left. The class given is functional, Cavia porcellus, Cardiac atrium.
Data set [14] in a line: […] chronotropic activity in guinea pig spontaneously beating right atria assessed as decrease in atrial rate at 5 x 10^-6 M relative to control. The class given is functional, Cavia porcellus, Cardiac atrium. More on the design: scale not given: the % may be the effect or the level left.
A short description of data set [15]: Antiarrhythmic activity in guinea pig left atria assessed as increase of 1 Hz-induced alternating current arrhythmia at 5 x 10^-5 M after 60 mins relative to control. The class given is functional. As to conditions: Cavia porcellus, Cardiac atrium, 1 h.
Data set [16] is described as follows: Negative inotropic activity in guinea pig left atria assessed as decrease of 1 Hz current-induced developed tension at 5 x 10^-7 M relative to control. Format: functional, Cavia porcellus, Cardiac atrium. Set-up: scale not given: the % may be the effect or the level left.
Data set [17] in a line: […] chronotropic activity in guinea pig spontaneously beating right atria assessed as decrease in atrial rate at 10^-4 M relative to control. More on the design: scale not given: the % may be the effect or the level left. The class given is functional, Cavia porcellus, Cardiac atrium.
A short description of data set [18]: Negative chronotropic activity in guinea pig spontaneously beating right atria assessed as decrease in atrial rate at 5 x 10^-5 M relative to control. The class given is functional, Cavia porcellus, Cardiac atrium. Set-up: scale not given: the % may be the effect or the level left.

The term IC50 denotes the midpoint of a concentration-inhibition curve. In general, EC50 refers to the concentration that produces a half-maximal response. The term Papp denotes the rate of passage across a membrane or cell layer, normalised by area and donor concentration. What is called Emax is the size of the effect at its maximum, as opposed to the concentration needed. In general, EC30 refers to the concentration at which the effect reaches the 30% level.

Where only a bound is given, the exact number is not on record here.

T1 sequence (Q14524 whole entry): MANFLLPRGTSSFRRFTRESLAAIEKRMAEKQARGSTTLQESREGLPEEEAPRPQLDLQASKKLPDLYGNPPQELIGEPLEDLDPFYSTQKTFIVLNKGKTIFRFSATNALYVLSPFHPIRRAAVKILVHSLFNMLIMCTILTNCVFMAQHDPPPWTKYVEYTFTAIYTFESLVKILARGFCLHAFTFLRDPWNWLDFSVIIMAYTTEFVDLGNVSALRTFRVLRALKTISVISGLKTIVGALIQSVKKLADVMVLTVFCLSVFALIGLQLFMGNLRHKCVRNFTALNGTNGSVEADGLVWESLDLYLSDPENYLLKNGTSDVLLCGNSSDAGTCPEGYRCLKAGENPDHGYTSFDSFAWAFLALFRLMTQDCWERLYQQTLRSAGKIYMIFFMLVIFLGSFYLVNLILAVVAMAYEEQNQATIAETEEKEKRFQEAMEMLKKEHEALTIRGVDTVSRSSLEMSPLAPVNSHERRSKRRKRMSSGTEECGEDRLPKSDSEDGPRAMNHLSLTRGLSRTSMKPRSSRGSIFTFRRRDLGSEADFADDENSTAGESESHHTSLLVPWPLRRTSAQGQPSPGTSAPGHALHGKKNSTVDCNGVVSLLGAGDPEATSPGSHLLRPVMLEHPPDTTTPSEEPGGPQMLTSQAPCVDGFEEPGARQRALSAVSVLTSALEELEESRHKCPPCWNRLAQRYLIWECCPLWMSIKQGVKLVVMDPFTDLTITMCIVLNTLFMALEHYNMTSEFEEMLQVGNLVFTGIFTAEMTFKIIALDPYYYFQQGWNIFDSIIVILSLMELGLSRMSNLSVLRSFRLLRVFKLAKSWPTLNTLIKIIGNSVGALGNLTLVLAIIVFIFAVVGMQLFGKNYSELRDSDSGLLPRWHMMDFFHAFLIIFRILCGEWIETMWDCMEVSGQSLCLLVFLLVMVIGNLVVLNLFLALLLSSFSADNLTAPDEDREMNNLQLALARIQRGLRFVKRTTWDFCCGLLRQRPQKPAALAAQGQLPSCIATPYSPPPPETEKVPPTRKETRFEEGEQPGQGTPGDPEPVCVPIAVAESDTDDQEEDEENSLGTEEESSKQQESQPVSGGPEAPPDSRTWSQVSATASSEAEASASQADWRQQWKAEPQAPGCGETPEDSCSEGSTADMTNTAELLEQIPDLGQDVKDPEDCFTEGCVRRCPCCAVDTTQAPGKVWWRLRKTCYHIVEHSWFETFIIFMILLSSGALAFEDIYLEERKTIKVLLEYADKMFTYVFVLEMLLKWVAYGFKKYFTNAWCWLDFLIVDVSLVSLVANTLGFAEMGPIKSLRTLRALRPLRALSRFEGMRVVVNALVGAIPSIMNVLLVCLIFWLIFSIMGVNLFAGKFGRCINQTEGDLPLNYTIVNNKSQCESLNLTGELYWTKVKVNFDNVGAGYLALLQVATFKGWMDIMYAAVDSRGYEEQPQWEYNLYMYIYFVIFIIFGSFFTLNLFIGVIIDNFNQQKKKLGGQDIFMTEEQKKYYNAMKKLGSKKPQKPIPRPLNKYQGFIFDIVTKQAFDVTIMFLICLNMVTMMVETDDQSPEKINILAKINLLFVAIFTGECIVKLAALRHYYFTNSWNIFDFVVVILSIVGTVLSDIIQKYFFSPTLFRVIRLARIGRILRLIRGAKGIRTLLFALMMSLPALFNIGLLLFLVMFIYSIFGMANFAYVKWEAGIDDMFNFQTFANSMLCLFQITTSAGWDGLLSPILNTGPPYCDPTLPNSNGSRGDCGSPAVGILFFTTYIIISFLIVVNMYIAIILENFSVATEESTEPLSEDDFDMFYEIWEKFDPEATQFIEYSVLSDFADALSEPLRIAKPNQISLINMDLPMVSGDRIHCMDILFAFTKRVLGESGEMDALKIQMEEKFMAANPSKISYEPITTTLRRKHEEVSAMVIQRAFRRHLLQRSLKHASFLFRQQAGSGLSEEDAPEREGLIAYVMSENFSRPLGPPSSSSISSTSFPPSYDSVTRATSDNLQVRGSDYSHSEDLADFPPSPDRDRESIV

Regarding `Cc1ccc(O)c(C)c1OCC(C)N` (racemic), the Activity in data set [1] was 39%; in the data set on Mus musculus, “Non-toxic”; in the data set on Aorta it was 19%; in data set [10], 96%. For the same compound, the IC50 came out at 30 µM in data set [2] and 174 µM in data set [4]. In addition, the EC50 in data set [3] was 0.098 µM; in [6], 10.2 µM; with HepG2, more than 2000 µM. For the same compound, the figures for the Papp in the data set with Caco-2 [5] and with Caco-2 [9] were 300.6 ×10⁻⁶ cm/s and 142.5 ×10⁻⁶ cm/s, respectively. The Ratio in the data set with Caco-2 [7] is given as 2.1. Further, the Emax at 100 µM in data set [8] is 72%.

Turning to `Cc1cccc(C)c1OCC(C)N` (racemic) [MEXILETINE], the EC50 in data set [3] was found to be 0.045 µM; in data set [6], 11.6 µM; in the data set on HepG2 it was 2000 µM. Further, in data set [11], the EC30 came to 0.014 µM. In addition, the Activity with Aorta is reported as 5%. Besides, the Emax at 100 µM in [8] turned out to be 64%.

Consider `CCCCc1oc2ccccc2c1C(=O)c1cc(I)c(OCCN(CC)CC)c(I)c1` [AMIODARONE], for which the Activity amounted to 72% in data set [1], 3% in the data set with Aorta and 30% in data set [12]. In addition, the Emax at 100 µM in [8] came to 10%.

For `CCN(CC)CC(=O)Nc1c(C)cccc1C` [LIDOCAINE], the Activity in [13] is 88%; in data set [14], 29%; in the data set with Aorta, 14%. Moreover, in [3], the EC50 came out at 0.017 µM. Further, the Emax at 50 µM in [15] turned out to be 34%.

Consider `CCN(CC)CCNC(=O)c1ccc(N)cc1` [PROCAINAMIDE], for which the Emax at 50 µM in data set [15] was determined as 11%.

Take `CCN(CC)CCOC(=O)c1ccc(N)cc1` [PROCAINE]: the Activity in [16] was found to be 92%; in data set [17] it was 9%; with Aorta, 3%. Moreover, the EC50 in [3] is 0.014 µM.

With `C=C[C@H]1CN2CC[C@H]1C[C@@H]2[C@@H](O)c1ccnc2ccc(OC)cc12` [QUINIDINE], in data set [11], the EC30 came out at 3.99 µM. The Activity is recorded as 30% in the data set on Aorta, 71% in data set [10] and 86% in data set [18]. Further, in [15], the Emax at 50 µM was 69%.
